Test results reported in patent US20020002144A1, “Methods and compositions for bisubstrate inhibitors of acetyltransferases” (The Government of the United States of America, Department …, priority 1999, published 2002).
Blank lines part the entries; values can stand above or below the compound they belong to.

Columns and labels:
rat pinealocytes [1] = experiment: Melatonin production by norepinephrine-treated pinealocytes (radioimmunoassay of medium); format: cell-based; details: for Melatonin production: Experiment 1, 18-24 hours; for Melatonin (18-23 hr): Experiment 2
Procedure: (§1) Pineal cell preparation and treatment: Pinealocytes were prepared from rat pineal glands by trypsinization as previously described (10). The cells were suspended in Dulbecco's modified Eagle medium (DMEM) containing 10% fetal calf serum and maintained (37° C.) for 18 h in a gas mixture of 95% air and 5% CO2. During this 18 hour period, some cells were treated, as indicated in Table 2 experiment 2, in aliquots of 50,000 cells/300 μl and washed prior to addition of fresh medium and further treatment. In some cases, as in Table 3, experiment 1, cells were not aliquoted until after 18 hours of control incubation and in these cases, aliquots of cells (50,000 cells/300 μl) were prepared and treated with drugs. Drugs were prepared in 100×concentrated solutions in water or dimethyl sulfoxide. The duration of the drug treatment was 5 h.
At the end of treatment period, cells were collected by centrifugation (2 min, 10,000 g) and the medium was removed and stored. Cell pellets were frozen immediately in dry ice and stored at −80° C. until determination of AANAT activity. The supernatant collected was used for determination of melatonin.
Melatonin analysis. Melatonin in the medium was determined by a radioimmunoassay as described previously (11,12). Briefly, melatonin was extracted from 300 μl of medium by vortexing with 1 ml of methylene chloride. After centrifugation, 700 μl of the organic phase was collected and evaporated to dryness. The residue was reconstituted in 500 μl of assay buffer (0.01M phosphate buffer, pH 7.5, containing 0.1% gelatin).
An ultraspecific melatonin antiserum from CIDtech Research Inc. (Mississauga, Ontario Canada) was used for the melatonin radioimmunoassay. Aliquots of extracted melatonin samples were diluted to 500 μl with assay buffer. 100 μl of melatonin antiserum and 50 μl of [^3H]melatonin (˜2000 cpm, at 45.5 Ci/mmol) were then added. After mixing, the tubes were incubated at 4° C. overnight. To separate the bound from the free [^3H] melatonin, 650 μl of saturated ammonium sulphate were added and the samples were incubated at 4° C. for 1 hr. The bound [^3H]melatonin was collected in a protein pellet by centrifugation (4,000 g×30 min) and re-dissolved in 550 μl of deionized water. 500 μl was then used for scintillation counting. Both inter- and intra-assay variability were less than 10%.
N-Bromoacetyltryptamine treatment of rat pinealocytes inhibits melatonin production. Experiments were conducted to determine if N-bromoacetyltryptamine could inhibit production of melatonin. This was done using rat pinealocytes in which melatonin production was elevated by treatment with norepinephrine, which acts by elevating the activity of AANAT.

AANAT [2] = biological target: T1, AANAT (Ovis aries, UniProt Q29495); experiment: AANAT assay with aqueous extracts of AANAT/CoA/N-bromoacetyltryptamine pre-incubations; format: biochemical; details: 20 μl extract in 100 μl AANAT assay
T1 construct: made in house
Procedure: AANAT assay: The specific activity of the AANAT preparation was determined from measurement of the activity of the enzyme and amount of protein in a preparation. Activity was assayed by incubating the enzyme with ^3H-acetyl CoA (0.5 mM, 4 μCi/μmole) and tryptamine hydrochloride (1 mM), bovine serum albumin (0.5 mg/ml) and the enzyme in total volume of 100 μl of sodium phosphate (0.1M, pH 6.8) (6,7). The incubation was terminated by extracting the product ^3H-acetyltryptamine with chloroform (1 ml). The chloroform phase was washed sequentially with 200 μl of the sodium phosphate buffer and twice with 200 μl of NaOH (1N). The radioactivity in 400 μl of the chloroform phase was determined following evaporation of chloroform under vacuum. Protein was measured by optical density at 280 nm and by dye binding using the Brandford procedure.
Incubations to study formation of CoA-S-N-acetyltryptamine.—Bromoacetyltryptamine (20 μM) was incubated (37° C., 30 min) with coenzyme A (20 μM), bovine serum albumin (0.5 mg/ml) and the enzyme in a total volume of 100 μl of Tris HCl (50 mM, pH 7.4) and the incubation was terminated by adding chloroform (1 ml) and vortexing. The aqueous phase was then removed. Samples of the aqueous phase from each chloroform extraction were analyzed by mass spectroscopy and for inhibitory activity in an AANAT assay.
This conclusion was supported by the biochemical evidence from experiments in which the aqueous extracts analyzed above were incubated with a fresh preparation of AANAT in an AANAT assay. Inhibitory activity of the extract was determined.

rat pinealocytes [3] = experiment: Cytotoxicity to pinealocytes (response to norepinephrine after wash out); format: cell-based; details: 18 hour treatment with 0.5 μM, medium changed, then norepinephrine
Procedure: as §1
The effect of an 18 hour treatment with 0.5 μM N-bromoacetyltryptamine was examined. Following the 18 hour treatment, the medium was changed and fresh medium was added. Following this treatment, cells responded to norepinephrine treatment with an increase in melatonin production and AANAT activity.

AANAT [4] = biological target: T2, AANAT (Rattus norvegicus, UniProt Q64666); experiment: AANAT activity in treated pinealocytes; format: cell-based; details: Experiment 2
T2 construct: Pinealocytes were prepared from rat pineal glands by trypsinization; endogenous in cells; host or cells: primary pinealocytes from male Sprague-Dawley rats
Procedure: AANAT assay: The specific activity of the AANAT preparation was determined from measurement of the activity of the enzyme and amount of protein in a preparation. Activity was assayed by incubating the enzyme with ^3H-acetyl CoA (0.5 mM, 4 μCi/μmole) and tryptamine hydrochloride (1 mM), bovine serum albumin (0.5 mg/ml) and the enzyme in total volume of 100 μl of sodium phosphate (0.1M, pH 6.8) (6,7). The incubation was terminated by extracting the product ^3H-acetyltryptamine with chloroform (1 ml). The chloroform phase was washed sequentially with 200 μl of the sodium phosphate buffer and twice with 200 μl of NaOH (1N). The radioactivity in 400 μl of the chloroform phase was determined following evaporation of chloroform under vacuum. Protein was measured by optical density at 280 nm and by dye binding using the Brandford procedure. Pineal cell preparation and treatment: Pinealocytes were prepared from rat pineal glands by trypsinization as previously described (10). The cells were suspended in Dulbecco's modified Eagle medium (DMEM) containing 10% fetal calf serum and maintained (37° C.) for 18 h in a gas mixture of 95% air and 5% CO2. During this 18 hour period, some cells were treated, as indicated in Table 2 experiment 2, in aliquots of 50,000 cells/300 μl and washed prior to addition of fresh medium and further treatment. In some cases, as in Table 3, experiment 1, cells were not aliquoted until after 18 hours of control incubation and in these cases, aliquots of cells (50,000 cells/300 μl) were prepared and treated with drugs. Drugs were prepared in 100×concentrated solutions in water or dimethyl sulfoxide. The duration of the drug treatment was 5 h. At the end of treatment period, cells were collected by centrifugation (2 min, 10,000 g) and the medium was removed and stored. Cell pellets were frozen immediately in dry ice and stored at −80° C. until determination of AANAT activity. The supernatant collected was used for determination of melatonin.

[5] = test system: arylamine N-acetyltransferase (E.C. 2.3.1.5); details: adverse reactions reported to result from acetylation of the drug; cited from earlier work
[6] = Treatment I BAT (0.5 μM) (0-18 hr), wash out, Treatment II NE (10 μM) (18-23 hr)
[7] = Treatment I DMSO (0-18 hr), Treatment II NE 10 μM + BAT (0.5 μM) (18-23 hr)
[8] = Treatment I DMSO (0-18 hr), Treatment II NE 10 μM (18-23 hr)

T1 sequence (Q29495 whole entry): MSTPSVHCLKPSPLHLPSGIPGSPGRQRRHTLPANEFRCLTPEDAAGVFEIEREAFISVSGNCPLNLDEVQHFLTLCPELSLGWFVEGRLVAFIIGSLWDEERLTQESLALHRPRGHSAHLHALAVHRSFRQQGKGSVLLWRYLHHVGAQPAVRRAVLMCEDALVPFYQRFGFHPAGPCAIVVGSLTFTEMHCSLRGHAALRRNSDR
T2 sequence (Q64666 whole entry): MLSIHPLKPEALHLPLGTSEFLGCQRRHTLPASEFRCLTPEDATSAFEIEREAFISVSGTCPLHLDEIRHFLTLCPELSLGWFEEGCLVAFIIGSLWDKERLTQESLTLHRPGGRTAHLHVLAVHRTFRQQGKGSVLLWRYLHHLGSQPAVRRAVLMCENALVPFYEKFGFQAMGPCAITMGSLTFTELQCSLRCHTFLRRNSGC

remaining activity at 20 µM (AANAT [2]; Complete pre-assay reaction (AANAT + CoA 20 μM + N-bromoacetyltryptamine 20 μM, 37° C., 30 min), read-out: AANAT Activity (% of control)): 38% | AANAT Activity (% of control) (AANAT [2]; pre-assay reaction Minus CoA): 107% | AANAT Activity (% of control) (AANAT [2]; pre-assay reaction Zero time (not incubated)): 110% | AANAT Activity (% of control) (AANAT [2]; pre-assay reaction with Boiled enzyme): 104% | AANAT (23 hr) (AANAT [4]; [6]): 0.86 ± 0.06 μmol/h/105 cells | AANAT (23 hr) (AANAT [4]; [7]): 0.48 ± 0.05 μmol/h/105 cells
SMILES: O=C(CBr)NCCc1c[nH]c2ccccc12 [N-Bromoacetyltryptamine]
production of melatonin (rat pinealocytes [1]; 5 hour treatment with 0.1, 0.5 or 1 μM, norepinephrine-treated rat pinealocytes): markedly reduced | Melatonin production (rat pinealocytes [1]; N-Bromoacetyltryptamine (1 μM) alone): 0.65 ± 0.05 pmol/100,000 cells | Melatonin production (rat pinealocytes [1]; Norepinephrine (10 μM) + N-Bromoacetyltryptamine (0.1 μM)): 4.55 ± 0.04 pmol/100,000 cells | Melatonin production (rat pinealocytes [1]; Norepinephrine (10 μM) + N-Bromoacetyltryptamine (1 μM)): 0.95 ± 0.25 pmol/100,000 cells | Melatonin (18-23 hr) (rat pinealocytes [1]; Treatment I BAT (0.5 μM) (0-18 hr), wash out, Treatment II Control (18-23 hr)): 1.78 ± 0.14 pmole/10^5 cells | Melatonin (18-23 hr) (rat pinealocytes [1]; [6]): 12.22 ± 2.90 pmole/10^5 cells | Melatonin (18-23 hr) (rat pinealocytes [1]; [7]): 1.88 ± 0.82 pmole/10^5 cells | cytotoxicity (rat pinealocytes [3]): not cytotoxic

SMILES: NNC(=O)c1ccncc1 [Isoniazid]
Adverse Drug Reaction Reported [5]: Peripheral neuropathy, liver

SMILES: CCN(CC)CCNC(=O)c1ccc(N)cc1 [Procainamide]
Adverse Drug Reaction Reported [5]: Lupus, uncontrolled arrhythmias

SMILES: NC[C@H](O)c1ccc(O)c(O)c1 [Norepinephrine, reference compound]
Melatonin production (rat pinealocytes [1]; Norepinephrine (10 μM) alone): 12.43 ± 2.00 pmol/100,000 cells | Melatonin (18-23 hr) (rat pinealocytes [1]; [8]): 10.44 ± 1.07 pmole/10^5 cells | AANAT (23 hr) (AANAT [4]; [8]): 0.89 ± 0.10 μmol/h/105 cells

SMILES: Nc1ccc(S(=O)(=O)c2ccc(N)cc2)cc1 [Dapsone]
Adverse Drug Reaction Reported [5]: Hematological

SMILES: NNc1nncc2ccccc12 [Hydralazine]
Adverse Drug Reaction Reported [5]: Lupus, uncontrolled hypertension

SMILES: CCC1(c2ccc(N)cc2)CCC(=O)NC1=O (centres unmarked) [Aminoglutethamide]
Adverse Drug Reaction Reported [5]: Adrenal insufficiency

SMILES: Cc1cc(C)nc(NS(=O)(=O)c2ccc(N)cc2)n1 [Sulfamethazine]
Adverse Drug Reaction Reported [5]: Hematological/Gastrointestinal
